In the METLIN SMRT retention time set (Domingo-Almenara et al. 2019) one finds RP-LC retention time data, which are given here for 80 compounds.

This data set is described as follows: gradient 5% acetonitrile 3 min, to 50% in 2 min, to 85% in 15 min, held 3 min, 100 µL/min. The note with it: column: Zorbax Extend-C18 2.1 x 50 mm; eluents: water / acetonitrile, 0.1% formic acid. The method in brief:
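Pure standards were run in mixtures of ~100 molecules by HPLC coupled to a quadrupole time-of-flight mass spectrometer. The column was a Zorbax Extend-C18 (2.1 × 50 mm, 1.8 μm) at 100 μL/min, with water and acetonitrile each containing 0.1% formic acid, in positive and negative ionization mode. Dead and dwell volumes were 40 μL and 900 μL. Retention time was taken from computationally picked adduct peaks, each manually inspected, with data collected over 3 months.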
Regarding `CC(C)CN1CCn2cc(C(=O)NCc3ccc(F)cc3Cl)nc2C1`, the RP-LC retention time was determined as 646 s.

As to `O=C(Cn1ccn2nc(-c3ccc(F)cc3)c(CO)c2c1=O)Nc1ccc(Cl)cc1`, the RP-LC retention time was determined as 880 s. Then `CC(C)N1C(=O)c2cccnc2Sc2cc(C(=O)N3CCN(C)CC3)ccc21`, with 582 s; and `CC1CCN(c2ccc(CNc3nc4ccncc4n(C(C)C)c3=O)cc2)CC1`, with 574 s; and `CCc1nc2nc3c(c(N4CCN(c5ccccn5)CC4)n2n1)CCC3`, with 581 s. In turn, `COc1ccc(C)cc1NC(=O)N1CCc2nc[nH]c2C1` returned an RP-LC retention time of 592 s. On to `Nc1nc(OCc2cc(Br)cs2)c2[nH]cnc2n1`, for which the RP-LC retention time is 687 s. `O=C(CCc1c(-c2ccc(F)cc2)nc2ccccn12)NCc1ccccc1Cl` registered an RP-LC retention time of 779 s. The same measure for `Cc1cc(C)n(CCNC(=O)CSCc2ccccc2)n1`: 683 s; for `O=C(Cc1nnc(-c2ccc3ncccc3c2)o1)NCc1ccc(F)cc1Cl`: 752 s; for `CN1CCC(OC2CCN(C(=O)CC3CCCC3)CC2)CC1`: 596 s. Take `O=C(Nc1ccc(Br)cc1)C1CCCN(c2ccnc(-c3ccc(F)cc3)n2)C1` (stereo not given): the RP-LC retention time was 775 s. For `Cc1cc(OC(C)C(=O)N2CCC3(O)CCCCC3C2)c2c3c(c(=O)oc2c1)CCC3` (stereo not given), the RP-LC retention time was found to be 820 s. The same measure for `O=C(N1CCN(c2cc(-c3ccc(Cl)cc3)[nH]n2)CC1)C1(c2ccccc2)CC1`: 924 s; for `CCc1ccc(C2=C(C)C(N3CCCN(C(=O)C(C)(C)CC)CC3)=NS2(=O)=O)cc1`: 935 s; for `CC1(C(=O)NCc2ccccc2)CCN(C(=O)Nc2cccc(C(F)(F)F)c2)CC1`: 919 s. The same measure for `O=C(CCc1c[nH]c2ccccc12)N1CCc2cc(-c3ccno3)ccc21`: 984 s.

As for `CCNC(=O)N1CCC(c2noc(-c3cnccn3)n2)C1` (stereo not given), the RP-LC retention time was found to be 608 s. The same measure for `CCn1c(CN(C)C(=O)Nc2ccc3c(c2)OCO3)nc2cc(C(=O)N(C)C)ccc21`: 607 s. As to `Cc1c(C(=O)NC2CC2)cc(-c2ccc(F)cc2)n1C`, the RP-LC retention time is 830 s. Then `COc1ccccc1C(=O)N1CC(Oc2cccc(-c3nc(-c4ccccc4)no3)c2)C1`, with 1130 s; and `Cc1nc(-c2nnc(NC(=O)C3CCN(S(C)(=O)=O)CC3)o2)cs1`, with 572 s.

In turn, `O=C(c1cnc2sc3c(n2c1=O)CCC3)N1CCN(c2ncccn2)CC1` showed an RP-LC retention time of 658 s.

On to `O=C(c1n[nH]c(=O)c2ccccc12)N1CCCC1c1nc(CCOCC2CCCC2)no1` (stereo not given), for which the RP-LC retention time stood at 848 s. Then `Cc1ccc(NS(=O)(=O)c2ccc3c4c(cccc24)C(=O)N3)c(C)c1`, with 751 s. Then `COCCCNC(=O)c1ccc(-c2ccc(Oc3ccccc3)nn2)cc1`, with 757 s. For `COc1ccc(NC(=O)Nc2ccc(-c3cn4cccnc4n3)cc2)cc1`, the RP-LC retention time came to 616 s.

`Cc1cccc(Sc2nccnc2N2CCCC(C(=O)N3CCN(c4ccccn4)CC3)C2)c1` (stereo not given): the RP-LC retention time came out at 761 s.

`CCc1nn(C)c(=O)c2cc(S(=O)(=O)NCc3ccccc3)cn12` came in with an RP-LC retention time of 831 s.

In the case of `COc1ccc(C(=O)c2cnc3cc4c(cc3c2N2CCN(C)CC2)OCCO4)cc1`, the RP-LC retention time is 560 s. The same measure for `COc1cccc(NC(=O)NCCc2nc3cccnc3n2C2CCCC2)c1`: 696 s; for `O=C(Cn1nc2c3ccc(Cl)cc3ncn2c1=O)Nc1ccccc1`: 727 s; for `CCn1cc(CCN2CCC(C(=O)Nc3ccc4c(c3)OCCO4)CC2)c2cccnc21`: 626 s.

On to `CCOc1ccc(NC(=O)Nc2cccc(-c3ccc(N4CCCCC4)nn3)c2)cc1`, for which the RP-LC retention time was found to be 740 s. With `CCn1cnc2ccc(-c3noc(COc4cccc(C)c4)n3)cc21`, the RP-LC retention time worked out at 808 s. The same measure for `Cc1cc(C)cc(-c2nnc(Cc3nc(-c4cccc(C(F)(F)F)c4)no3)o2)c1`: 1250 s. Compound `CC(=O)O[C@H]1Cc2ccccc2N(C(N)=O)c2ccccc21` returned an RP-LC retention time of 782 s. Regarding `CCCN1C(=O)COc2ccc(-c3csc(NC(=O)C(C)(C)C)n3)cc21`, the RP-LC retention time is 1010 s. Regarding `COc1ccccc1-c1csc(NC(=O)Cc2csc(C)n2)n1`, the RP-LC retention time was determined as 881 s. Compound `Cc1nc2cc(NC(=O)c3ccc(S(=O)(=O)N(C)CC4CCCO4)cc3)ccc2s1` (stereo not given) gave an RP-LC retention time of 764 s. Compound `CCc1nc(C2CN(CCc3ccccc3)CC23CCCC3)no1` (stereo not given) had an RP-LC retention time of 670 s.

For the compound `Cc1ccccc1CN1CC(=O)NCC12CCCC2`, the RP-LC retention time was found to be 573 s. Turning to `CCCCC1CCC(C(=O)Nc2nc(-c3ccc4c(c3)NC(=O)CO4)cs2)CC1` (stereo not given), the RP-LC retention time worked out at 934 s. Then `CCCNC(=O)C1CCN(c2ccc(SCC(=O)Nc3c(F)cccc3F)nn2)CC1`, with 614 s. In turn, `O=C(CC1CCCC1)Nc1cnc(-c2ccccc2)nc1` showed an RP-LC retention time of 990 s. In turn, `CCC(C)NC(=O)c1cnn(-c2ccc(-c3nc(C(C)C)no3)cn2)c1C` (stereo not given) returned an RP-LC retention time of 1000 s.

Take `CCOc1ccc(CC(=O)NC2CCN(c3cc(-c4ccc(Cl)cc4)[nH]n3)C2)cc1OCC` (stereo not given): the RP-LC retention time worked out at 803 s. Then `Cc1ccc(N(CN2CCCC2=O)C(=O)c2ccc(C)c(C)c2)cc1`, with 783 s.

On to `O=C(CCn1nnc2cc(-c3noc(-c4cccc(Br)c4)n3)ccc21)N1CCOCC1`, for which the RP-LC retention time worked out at 980 s. The compound `O=C(Cn1nc2c(Oc3cccc(F)c3)nccn2c1=O)Nc1ccccc1C(F)(F)F` registered an RP-LC retention time of 870 s. `Cc1cccnc1NC(=O)c1csnn1`: the RP-LC retention time is 637 s. The same measure for `COc1cc(=O)c(C(=O)NC(C)C)nn1-c1ccc(F)cc1`: 686 s; for `Cn1ncc2c(N3CCCC3)nc(C(=O)NCc3ccc(C(F)(F)F)cc3)nc21`: 905 s. In turn, `O=C(c1ccc(-c2nccnc2N2CCCC2)cc1)N1CCC(Cc2ccccc2)CC1` returned an RP-LC retention time of 1110 s. Compound `CCOC(=O)C1CCN(C(=O)C2CCCN(c3nc4cccnc4n(CC)c3=O)C2)CC1` (stereo not given) came in with an RP-LC retention time of 969 s. In turn, `CC(=O)c1ccc(NC(=O)c2cc(C)nc3ccccc23)cc1` yielded an RP-LC retention time of 644 s.

With `O=C(Nc1ccccc1)Nc1ccccn1`, the RP-LC retention time came out at 736 s.

For `Cc1cc(-c2nnc(NC(=O)CS(=O)(=O)c3ccc(Cl)cc3)o2)nn1C`, the RP-LC retention time amounted to 677 s.

Take `COc1cc(/C=C(\C)c2ccc3c(c2)OCO3)cc(OC)c1OC`: the RP-LC retention time was determined as 1030 s. Then `O=C(CCc1nc2ccccc2s1)N1[C@H]2CC[C@@H]1c1cnc(-c3ccccc3)nc1C2`, with 902 s; and `Cc1occc1C(=O)N1CCc2nn(CC3CC3)c(=O)n2CC1`, with 646 s.

As to `Cn1nc(-c2ccc(NC(=O)c3cccc4ccccc34)cc2)ccc1=O`, the RP-LC retention time was determined as 763 s. The same measure for `CC(=O)Nc1ccc(-n2cnc(C(=O)NC(C)CCc3ccccc3)c2)nc1` (stereo not given): 744 s; for `Cc1cccc(N2CCN(Cc3nc(-c4ccc(N5CCCCC5)nc4)no3)CC2)c1`: 965 s; for `COC(=O)c1c(NCc2ccc(C(F)(F)F)cc2)c2cc(F)ccc2[nH]c1=O`: 840 s. `CC(C)c1nc(-c2ccc(OC3CCNC3)cc2)no1` (stereo not given): the RP-LC retention time turned out to be 631 s. Regarding `CCOC(=O)C1CCN(C(=O)c2nc3ccccn3c2-c2ccsc2)CC1`, the RP-LC retention time turned out to be 664 s. Compound `CCn1nccc1C(=O)NC1CCN(c2nc3c(s2)c(C)nn3-c2ccc(F)cc2)CC1` displayed an RP-LC retention time of 1060 s.

On to `Cn1c(N2CCCC(C(=O)Nc3nccs3)C2)cc(=O)n(C)c1=O` (stereo not given), for which the RP-LC retention time stood at 634 s. Then `Cc1ccc(C(=O)N2C(C(=O)NCc3ccco3)COC23CCN(C(=O)C(C)(C)C)CC3)cc1` (stereo not given), with 756 s; and `Cc1nnc(N2CCCC(C(=O)NCc3cccc(Cl)c3)C2)c2nn(-c3ccccc3)c(C)c12` (stereo not given), with 674 s; and `CCc1nnc2c(=O)n(CC(=O)NCc3ccc(F)cc3)c3cccnc3n12`, with 698 s. On to `O=C(NCc1ccccc1)c1cc2c(=O)n(Cc3ccccc3)ccc2s1`, for which the RP-LC retention time was determined as 896 s. Then `Cc1ccccc1CC(=O)NC(C(=O)Nc1nc2ccccc2[nH]1)C(C)C` (stereo not given), with 730 s.

`Cc1ccc(NC(=O)Nc2ccc3nnc(C)n3c2)cc1` gave an RP-LC retention time of 673 s. The same measure for `c1ccc2c(N3CCNCC3)cccc2c1`: 690 s; for `CCCC(CCC)C(=O)N1CCCN(C2=NS(=O)(=O)C(c3ccc(C)cc3)=C2C)CC1`: 1010 s.

As to `Cc1cc2c(N3CCCC(C(=O)N4CCN(c5ccc(F)cc5)CC4)C3)nccc2s1` (stereo not given), the RP-LC retention time stood at 726 s. Compound `COCCN1C(=O)c2ccccc2C(C(=O)Nc2ccc3[nH]ccc3c2)C12CCCC2` (stereo not given) registered an RP-LC retention time of 814 s. Then `Cc1ccc(C(=O)N2CCN(S(=O)(=O)c3cc(-c4noc(C5CCC5)n4)cs3)CC2)s1`, with 1060 s.
